pIC50: −log10 of the molar value. “Also recorded” adds a separate entry of the source. Where two headings read alike, the source gives them in different places.
Tests used:
human skin explants = test: Whitening activity (ex vivo), Fontana-Masson staining for melanin quantification; assay type: cell-based; conditions: at 2%, topical, 7 days
Description: Fresh human skin explants were obtained from skin phototype III and VI donors, aged of 46±25 years. […] Kojic acid (Sigma-Aldrich) at 2% was topically applied and incubated under the same conditions, serving as positive control. The untreated condition was treated with the vehicle (distilled water). The medium was renewed every other day. After the end of culture, the skin explants were sampled and put in formalin before being dehydrated and embedded in paraffin for Fontana-Masson staining.
Skin explants fixed in formalin were dehydrated and embedded in paraffin. Sections of 4 μm thickness were dewaxed and then stained by Fontana-Masson silver method for melanin.
Images were collected using an Axio Observer Inverted fluorescence microscope (Zeiss) in bright field mode.
Melanin was quantified using two open source optical imaging software programs. Photomicrographs (jpeg format) of Fontana-Masson tissue sections were opened in GIMP-GNU Image Manipulation Program. The brown-black color signals corresponding to melanin grains on stained sections were selected, copied and pasted into a new image and saved as a jpeg file; this jpeg file consists solely of black/brown (melanin grains) on a white background. This image was subsequently opened using the ImageJ program. The image was then inverted and the mean intensity was obtained.

[1] = test system: Asian volunteers with dull skin and large senescence spots; test: Clinical study: ultrasound measurement of dermis density using DUB SkinScanner; assay type: in vivo, human; conditions: for Dermis density Mean +/− SD / Dermis density change vs D 0: cream with 2% ascorbic acid, hemiface, Asian women
Source text: For this study, volunteers applied the cream twice a day for 56 days.
GLYCOL, DIMETHICONE, FRAGRANCE
Volunteers were divided into two groups as follows: • Group 1: 20 Asian women testing the active cream in comparison to the placebo cream with an average age of 54±5 years. • Group 2: 18 Asian women testing the vitamin C cream in comparison to the placebo cream with an average age of 53±8 years.
Volunteers applied a cream containing 0.4% of active, 2% of ascorbic acid (vitamin C), respectively, on one hemiface and a placebo cream on the other hemiface […] for 56 days.
During this study, a skin color and spots analysis was conducted using Colorface®, biomechanical properties were tested using Cutometery®, and the dermis thickness was determined using a DUB SkinScanner 75® probe (max. depth of 3.28 mm).
The DUB Skin Scanner system is a high-frequency, high-resolution ultrasound diagnostic tool for use in dermatology, cosmetics and pharmaceuticals and clinical research. 75 MHz ultrasound is a popular method for non-invasive skin analysis. High frequency ultrasound (75 MHz) can explore the superficial layers of the skin and can penetrate up to 3 mm into the skin. Skin ultrasound is based on the population of ultrasound in the skin and on the direction and measurement of the amplitudes of the part reflected by the interfaces separating two media having different characteristics of acoustic waves. An ultrasound imaging technique used for the visualization of the structure of the subcutaneous body allows the evaluation of the homogeneity of the skin, including the density and the skin thickness.
Three measurements of thickness and density were taken to obtain an average for each image.
For this study, the analysis of the density of the dermis was carried out on D0, D28 and D56.

[2] = test system: Normal Human Epidermal Keratinocytes (NHEKs); test: Antioxidant activity: ROS production in keratinocytes stressed with TBP (DCFH-DA probe); assay type: cell-based; conditions: at 0.1%; TBP column = 100, Untreated = 27.5
Description: A 96 wells-plate was coated with a collagen I solution at 50 μg/ml. Normal Human Epidermal Keratinocytes (NHEKs) were seeded at 20′000 cells per well with four replicates. Cells were incubated for 24 hours in complete medium (Epilife, Gibco) supplemented with Human keratinocyte growth supplements (HKGS) factor (Gibco) and 1% antibiotics (Sigma) at 37° C. with 5% CO2. […] The evolution of the fluorescence was followed for 1 hour.

[3] = Skin penetration by Raman spectroscopy (ex vivo); assay type: in vitro ADME, human
Description: At the end of the incubation period, the skin explants were frozen in Optimal Cutting Temperature (OCT; VWR) at −80° C. and then cut longitudinally using a cryotome with a thickness of 20 μm. For each explant, 3 tissue sections were selected and deposited on a CaF2 support for Raman imaging analysis. The processing of corrected data maps was performed by using a software based on least squares fitting method that operates in the Matlab environment. This method involves mathematical modeling of reference spectra in the overall spectral image to determine the contribution and distribution of these spectra within the image. The reference spectra were the modelled spectra of the following products: Aglycone, glucoside mixture, 4′-O-α-monoglucoside and untreated skin control.

[4] = test system: spontaneous formation of Advanced Glycation End-products (AGEs); test: Anti-glycation in tubo assay (BSA + ribose, fluorescence); assay type: biochemical; conditions: 17 h at 37° C.; for pIC50: BSA + ribose, read-out: IC50 in well (concentration which inhibits AGEs formation by half)
Description: The anti-glycation effect was evaluated using an in tubo assay to measure the spontaneous formation of Advanced Glycation End-products (AGEs). This assay was conducted on a 96-wells microplate. […] The extracts were diluted in sodium phosphate buffer (0.1 M, pH 7.4). Several dilutions were tested. Each diluted extract was run in triplicate. A standard range of aminoguanidine was used as inhibitor reference (positive control). A mixture of the sodium phosphate buffer and BSA was used to validate the experiment and a mixture of sodium phosphate buffer, BSA and ribose was used as the positive control. Two blanks were carried out for the extract: • with phosphate buffer, BSA and extract • with phosphate buffer, ribose and extract The microplate was agitated and incubated for 17 h at 37° C. The fluorescence reading was performed with ? excitation 340 nm and ? emission 420 nm. The anti-glycation activity of the extract was calculated as follows: [formula] FI: Fluorescence of tested extract; blank extract (ribose or BSA); positive control; negative control. Based on the above measurements and calculation, the IC50, i.e. the concentration of the extract which inhibits AGEs formation by half, was calculated.

## O=C1O[C@H]([C@@H](O)CO)C(O)=C1O [Ascorbic acid, ascorbic acid]
Human skin explants
  reduction of melanin content compared to untreated: 28%
[1]; D 0 (baseline)
  Dermis density Mean +/− SD: 37.7 ± 8.1 arbitrary unit
[1]; D 28
  Dermis density Mean +/− SD: 39.1 ± 8.3 arbitrary unit
  Dermis density change vs D 0: +3.8%
[1]; D 56
  Dermis density Mean +/− SD: 40.7 ± 9.2 arbitrary unit
  Dermis density change vs D 0: +7.2%

## O=C(O[C@@H]1Cc2c(O)cc(O)cc2O[C@@H]1c1cc(O)c(O[C@H]2O[C@H](CO)[C@@H](O)[C@H](O)[C@H]2O)c(O)c1)c1cc(O)c(O)c(O)c1 [epigallocatechin gallate 4′-O-α-monoglucoside]
[2]
  ROS, Mean (% of untreated): 33.75 % of untreated
[3]; 2%, 8 hours of topical application, skin explants, relative to aglycone
  skin penetration higher than that of the aglycone: +90%
[3]; 2%, 8 hours of topical application, skin explants, relative to glucoside mixture
  skin penetration higher than that of the glucoside mixture: +20%
[3]; at depth of about 65 µm
  quantity accumulated in the skin relative to the aglycone: almost double that of the aglycone
[3]; compared to aglycone (and glucoside mixture)
  bioavailability in the skin: better skin bioavailability than the aglycone and the glucoside mixture; also recorded: much higher bioavailability in the skin than the respective aglycones
[3]; skin explants, Raman
  depth of accumulation in the skin / skin penetration depth: about 65 µm
[4]; listed as ECGC monoglucoside
  pIC50: 3.88
[4]
  pIC50: 3.93
[4]; tested concentration 0.08 mM
  Inhibition AGE's: 31.01%
[4]; tested concentration 0.4 mM
  Inhibition AGE's: 53.22%
[4]; tested concentration 1 mM
  Inhibition AGE's: 81.54%
[4]; tested concentration 8 mM
  Inhibition AGE's: 109.26%
[1]; summary statement, clinical evaluation on Asian volunteers
  increase of the dermis density: up to 16.6%
